Data reported in patent US10722547B2, “Compositions of medicinal plants for reducing the effects of aging, prevention and treatment of age-related neurodegenerative diseases, and treatment of anxiety and sleep disorders” (PharmacoGenetics Limited, priority 2016, dated 2020).

Legend:
D-galactose treated mice = test: Loss of whiskers induced by D-galactose treatment; type: in vivo, male ICR mice; conditions: D-galactose 150 mg/kg daily with or without 120 mg/kg oral extract, 8 weeks; N=12 mice/group
Description: Chronic exposure to D-galactose is a widely studied aging model that causes shortened lifespan in Drosophila and housefly (Jordens et al 1999; Cui et al 2004), and brings about spatial memory deficit, degeneration in the hippocampus and increased oxidative damage in a D-galactose-induced accelerated-aging model of the mouse (Cui et al 2006). […] In the present study, this D-galactose model was applied to 10 week old male ICR mice (n=8-12 per group). The mice were administered daily with 150 mg/kg D-galactose by subcutaneous injection, accompanied by either daily oral administration of the vehicle (0.9% NaCl) in the D-galactose treated control group (“D-gal”), or daily oral administration of one of the BYPA, BYP, BYA, BPA, YPA, BY, BP and YP herbal extracts (120 mg/kg), for an exposure period of 8 weeks. […] The resultant levels of accelerated aging in the D-gal group, the various herbal extract-treatment groups, and the Veh group were assessed at the end of the 8-week exposure period based on five criteria: (i) body weight; (ii) deficit in spatial memory in the Y-maze test; (iii) levels of the pro-inflammatory cytokine TNF-alpha in the brain; (iv) levels of the pro-inflammatory cytokine IL-6 in the brain; and (v) levels of the oxidative stress marker MDA in the brain. […]

[1] = test system: D-galactose treated animals; conditions: cited from earlier work
mice [2] = test: Locomotor activity test; type: in vivo, male ICR mice; conditions: 3 mg/kg diazepam oral; p<0.001 vs vehicle
Description: Locomotor activity test. Following the elevated plus-maze and holeboard tests, the Veh-treated mice, DZ-treated mice and variously herbal extract-treated mice were assessed for locomotor activity by means of the ZIL-2 apparatus (Beijing Institute of Materia Medica). The test apparatus, with dimensions of 60 cm×60 cm×12 cm, consisted of a transparent plastic cylindrical box equipped with three evenly spaced infrared beams with photodetectors. The number of transitions made across the infrared beams was recorded automatically over a period of 5 minutes. An increase or decrease in the number of transitions indicated a corresponding increase or decrease in the level of locomotor activity (Hui et al, 2002).

mice [3] = test: Rotarod test; type: in vivo, male ICR mice; conditions: diazepam at 1 or 3 mg/kg oral; p<0.001 vs vehicle
Description: Rotarod test. Mice randomly separated into groups (n=15−20/group) were orally administered 35 minutes prior to the rotarod test with vehicle (“Veh”, viz. 0.9% NaCl), 1 or 3 mg/kg DZ, or 120 mg/kg of one of the one-, two-, three- or four-herb extracts. The rotarod test for muscle coordination was performed using a custom-built apparatus consisted of a cylinder (2.5 cm diameter) with a textured surface placed 0.5 m above the ground. Prior to oral Veh, DZ or herbal extract administration, the mice were first trained to stay for 2 min on the rotarod revolving at 16 rpm. In the test, the effect of Veh, DZ or herbal extract treatment was examined by placing the mouse on the rotarod and recording the length of time it managed to stay on the rotarod, with cut-off set at 2 min.

mice [4] = test: Step-through passive avoidance test; type: in vivo, male ICR mice; conditions: diazepam at 1 or 3 mg/kg oral; p<0.001 vs vehicle
Description: Step-through passive avoidance test. Mice randomly separated into groups (n=15−20/group) were orally administered with vehicle (“Veh”, viz. 0.9% NaCl), 1 or 3 mg/kg DZ, or 120 mg/kg of one of the one-, two-, three- or four-herb extracts 35 minutes prior to training trials. The apparatus consisted of a two-chamber box (from Chinese Academy of Chinese Medical Science, Beijing) with one of the chambers being opaque (darkened) and the other transparent (lighted). In the training trials, each mouse was placed into the lighted chamber, and the door connecting the lighted and darkened chambers was opened 10 seconds later. […] In the actual test, after the mouse entered the darkened chamber, the door was closed and a 2-second electric foot shock of 0.4 mA was delivered through the grid floor. Ten seconds later the mouse was transferred from the darkened chamber back to its home cage. After an interval of 24 hours, it was returned to the lighted chamber. The door to the darkened chamber was opened 10 seconds later, and the time taken for the mouse to enter the darkened chamber was recorded as the ‘step-through latency’, with cut-off set at 300 seconds. A significant decrease in step-through latency observed with any group of animals compared to Veh-treated controls was indicative of impaired […] in the form of anterograde amnesia (Nazari-Serenj eh et al, 2011).

O=C[C@H](O)[C@@H](O)[C@@H](O)[C@H](O)CO [D-gal, D-galactose]
Loss of whiskers (% mice) 0 (no loss of whiskers) (D-galactose treated mice): 50 % mice | Loss of whiskers (% mice) + (loss of whiskers) (D-galactose treated mice): 50 % mice

O=C(O)CCCC[C@@H]1CCSS1 [R-α-lipoic acid]
cognitive dysfunction and neurodegeneration ([1]; 100 mg/kg i.p., Cui 2006): can ameliorate

C[C@H]1[C@H](C)CC[C@]2(C(=O)O)CC[C@]3(C)C(=CC[C@@H]4[C@@]5(C)C[C@@H](O)[C@H](O)[C@@](C)(CO)[C@@H]5CC[C@]43C)[C@H]12 [asiatic acid]
elevated levels of brain ROS, TNF-alpha and IL-6 ([1]; oral, 10 or 20 mg/kg, Chao et al 2015): can reduce

CN1C(=O)CN=C(c2ccccc2)c2cc(Cl)ccc21 [diazepam, Diazepam]
locomotor activity (mice [2]): significant reduction | time of stay on the moving rotarod (muscle coordination) (mice [3]): significant reduction | step-through latency (anterograde amnesia) (mice [4]): significant anterograde amnesia

CC(C)=CCC[C@](C)(O[C@@H]1O[C@H](CO)[C@@H](O)[C@H](O)[C@H]1O)[C@H]1CC[C@]2(C)[C@@H]1[C@H](O)C[C@@H]1[C@@]3(C)CC[C@H](O)C(C)(C)[C@@H]3[C@@H](O[C@@H]3O[C@H](CO)[C@@H](O)[C@H](O)[C@H]3O)C[C@]12C [ginsenoside Rg1]
cognitive impairment and hippocampus senescence ([1]; 20 mg/kg i.p., Zhu et al 2014): can prevent
